Source: ChEMBL document CHEMBL4190161 (Medchemcomm, 2016)
Calls of active or inactive are those of the source. The rule behind the calls is not given here. Starred links: 1 amine or outer side, 2 acyl side, 3 side chain; linkers in the order of their positions; H or OH if unused. Residues, ends and D or L forms follow the SMILES beside them. γGlu = O=C(O)[C@H](CCC(=O)[*:2])N[*:1]

Experiments:
[1] = Antioxidant activity assessed as trolox equivalent of hydroxyl radical scavenging activity up to 25 mg/ml measured after 60 mins by fenton reaction method; format: functional
[2] = Antioxidant activity assessed as DPPH radical scavenging activity incubated for 30 mins under dark condition by spectrophotometric method; format: functional
[3] = Antioxidant activity of the compound in phosphate buffer at pH 7.4 assessed as trolox equivalent of AAPH-induced peroxyl radical scavenging activity at 6 uM pretreated for 2 mins followed by AAPH addition measured at 2 mins interval for 108 minutes by ORAC-FL assay; format: functional
[4] = Metal chelating activity assessed as compound-Fe2+ complex formation
[5] = Antioxidant activity of the compound in phosphate buffer at pH 7.4 assessed as trolox equivalent of AAPH-induced peroxyl radical scavenging activity measured at 2 mins interval for 80 minutes by ORAC-FL assay; format: functional
[6] = Antioxidant activity of the compound in phosphate buffer at pH 6.6 assessed as trolox equivalent of potassium ferric cyanide ion reducing activity at 0.4 mM after 20 mins by spectrophotometric method; format: functional
[7] = Antioxidant activity assessed as ABTS radical scavenging activity measured within 12 mins by spectrophotometric method; format: functional
[8] = Antioxidant activity assessed as DPPH radical scavenging activity measured after 20 mins by spectrophotometric method; format: functional
[9] = Antioxidant activity of the compound in phosphate buffered saline at pH 7.4 assessed as trolox equivalent of ABTS radical scavenging activity after 6 mins by spectrophotometric method; format: functional
[10] = Antioxidant activity assessed as DPPH radical scavenging activity measured after 30 mins by spectrophotometric method; format: functional

Compound	Activity [1]	IC50 [2] [mM]	Activity (umolequiv/umol) [3]	Activity [4]	Activity (umolequiv/umol) [5]	other results
CC(C)C[C@H](NC(=O)[C@H](Cc1cnc[nH]1)NC(=O)[C@@H](N)Cc1ccc(O)cc1)C(=O)O	Active	99.9	0.36	inactive	–	–
CSCC[C@H](N)C(=O)O	–	–	–	–	1.13	–
N[C@@H](CS)C(=O)O	–	–	–	–	0.149	–
N[C@@H](Cc1c[nH]cn1)C(=O)O	–	–	–	–	0.073	–
N[C@@H](Cc1ccc(O)cc1)C(=O)O	–	–	–	–	1.57	–
N[C@@H](Cc1ccccc1)C(=O)O	–	–	–	–	0.0025	–
N[C@@H](CCC(=O)O)C(=O)N[C@@H](CS)C(=O)N[C@@H](Cc1cnc[nH]1)C(=O)O (H-Glu-Cys-His-OH)	Active	0.11	0.1	inactive	–	Activity (umolequiv/umol) [6]: 61.2; Activity [7]: Active; Activity [8]: inactive
CC(C)C[C@H](NC(=O)[C@H](CCC(=O)O)NC(=O)CN)C(=O)O (H-Gly-Glu-Leu-OH)	inactive	521	-0.1	inactive	–	–
CC(C)C[C@H](N)C(=O)N[C@@H](Cc1cnc[nH]1)C(=O)NCC(=O)O (H-Leu-His-Gly-OH)	Active	102	-0.48	inactive	–	–
CC(C)C[C@H](NC(=O)[C@@H](N)CCCCN)C(=O)N[C@@H](CCC(=O)O)C(=O)O (H-Lys-Leu-Glu-OH)	inactive	348	-0.04	inactive	–	–
CC(C)[C@H](NC(=O)[C@@H](N)CCCCN)C(=O)N[C@@H](Cc1cnc[nH]1)C(=O)O (H-Lys-Val-His-OH)	Active	285	0.03	inactive	–	–
CC(C)C[C@H](NC(=O)[C@H](CCCCN)NC(=O)[C@@H](N)Cc1ccccc1)C(=O)O (H-Phe-Lys-Leu-OH)	Active	4.2	-0.06	inactive	–	Activity (umolequiv/umol) [6]: 20.4
O=C(O)CNC(=O)[C@H](CS)NC(=O)[C@@H]1CCCN1 (H-Pro-Cys-Gly-OH)	Active	0.3	0.2	inactive	–	Activity [9]: Active; Activity (umolequiv/umol) [6]: 25.2; Activity [10]: inactive
N[C@@H](Cc1ccc(O)cc1)C(=O)N[C@@H](CCC(=O)O)C(=O)NCC(=O)O (H-Tyr-Glu-Gly-OH)	–	78.8	1.2	inactive	–	Activity (mmolequiv/mmol) [1]: 0.47; Activity [7]: Active
N[C@@H](CCC(=O)N[C@@H](CS)C(=O)N[C@@H](Cc1cnc[nH]1)C(=O)O)C(=O)O (γGlu-Cys-His-OH)	–	–	–	–	–	Activity [9]: Active
N[C@@H](CCC(=O)N[C@@H](CS)C(=O)NCC(=O)O)C(=O)O [GLUTATHIONE]	–	0.16	0.65	inactive	–	Activity (umolequiv/umol) [6]: 50.7; Activity [7]: Active
